Results reported in ChEMBL document CHEMBL3872276, “Antiproliferative activity and SARs of caffeic acid esters with mono-substituted phenylethanols moiety” (Bioorg Med Chem Lett, 2017).

Experiments:
[1] = cells; details: Homo sapiens, MCF7, 48 h
[2] = cells; details: Homo sapiens, DU-145, 48 h
[3] = cells; details: Homo sapiens, HeLa, 48 h
[4] = cells; details: Homo sapiens, ECa-109, 48 h

| Structure (SMILES) | IC50 [1] [µM] | IC50 [2] [µM] | IC50 [3] [µM] | IC50 [4] [µM] |
| --- | --- | --- | --- | --- |
| O=C(/C=C/c1ccc(O)c(O)c1)OCCc1ccccc1O | 21.8 | 24.4 | 29.4 | 40.2 |
| O=C(/C=C/c1ccc(O)c(O)c1)OCCc1ccccc1 [CAFFEIC ACID PHENETHYL ESTER] | 28.8 | 16 | 33 | 47.5 |
| Cc1ccccc1CCOC(=O)/C=C/c1ccc(O)c(O)c1 | 2.5 | 6.6 | 2.3 | 8.2 |
| CC(=O)O[C@H]1C(=O)[C@@]2(C)[C@H]([C@H](OC(=O)c3ccccc3)[C@]3(O)C[C@H](OC(=O)[C@H](O)[C@@H](NC(=O)c4ccccc4)c4ccccc4)C(C)=C1C3(C)C)[C@]1(OC(C)=O)CO[C@@H]1C[C@@H]2O [PACLITAXEL] | 0.63 | 0.011 | 0.036 | 0.94 |
| O=C(/C=C/c1ccc(O)c(O)c1)OCCc1ccc(F)cc1 | 29.9 | 12.8 | 35.8 | 51.9 |
| CC(C)Oc1ccccc1CCOC(=O)/C=C/c1ccc(O)c(O)c1 | 5.6 | 9.1 | 3.2 | 15.1 |
| COc1ccc(CCOC(=O)/C=C/c2ccc(O)c(O)c2)cc1 | 78 | 67.5 | 67.7 | 111 |
| CCc1ccccc1CCOC(=O)/C=C/c1ccc(O)c(O)c1 | 8.7 | 4.7 | 4.2 | 7.3 |
| O=C(/C=C/c1ccc(O)c(O)c1)OCCc1ccc(Cl)cc1 | 17.6 | 22.1 | 22.5 | 28.4 |
| O=C(/C=C/c1ccc(O)c(O)c1)OCCc1ccc(Br)cc1 | 28.2 | 35.4 | 56.8 | 40.3 |
| O=C(/C=C/c1ccc(O)c(O)c1)OCCc1ccc(O)cc1 [TYROSOL CAFFEATE] | 53.2 | 51.9 | 45.8 | 49.4 |
| Cc1ccc(CCOC(=O)/C=C/c2ccc(O)c(O)c2)cc1 | 20.6 | 36.9 | 25.8 | 20.9 |
| COc1ccccc1CCOC(=O)/C=C/c1ccc(O)c(O)c1 | 7.1 | 2 | 1.6 | 5.9 |
| Cc1cccc(CCOC(=O)/C=C/c2ccc(O)c(O)c2)c1 | 26.3 | 21.4 | 5.4 | 16.7 |
